Source: article PMC13289212, “HIVIL: A human in vitro inflammatory liver model recapitulates immune-associated drug effects with high predictivity” (NAM journal, 2025)
Where two headings read alike, the source gives them in different places.

Assays:
IL-6 [1] = assay: IL-6 production of iKC mono-culture; type: cell-based, human; details: result in words
Description: (§1) Enzyme-linked immunosorbent assay (ELISA) for measurement of cytokines: Interleukin-6 (IL-6), interleukin-10 (IL-10) and tumor necrosis factor alpha (TNFα) levels in the media were measured using the corresponding human-based ELISA kits (Abcam, Cambridge, United Kingdom) according to manufacturer’s instructions. The cytokine production from dosed cells was normalized with the viability value from the same well. The normalized cytokine level upon drug treatments was further presented as percentage of DMSO+LPS. Normalization to viability per well ensures that any changes in cytokines are not due to changes in cell numbers upon drug treatment and normalization to DMSO+LPS allows better comparison between different batches of experiments. This normalization approach has been used in previous studies (Rose et al. 2016).

[2] = test system: HIVIL (iKCs co-cultured with iHeps); assay: AlamarBlue cell viability in HIVIL; details: for IC50: Homo sapiens
Description: (§2) Stock solutions of drugs were prepared in dimethyl sulfoxide (DMSO) and dissolved in medium prior to use. […] For these two drugs, the highest DMSO concentration was 1 %. Supernatant was collected at 48 hr for measurement of cytokines, and remaining cells were subjected to viability assay prior to lysis for RNA extraction.

[3] = FDA-labeling information; ref Chen et al. 2016; cited from earlier work
IL-10 [4] = test system: IL-10; set-up: method as in Bekker et al. 2016; details: ref Bekker et al. 2016; cited from earlier work
IL-6 [5] = assay: IL-6 ELISA in iPSC(F4)-derived HIVIL; type: cell-based, human; details: result in words
Description: as §1

IL-6 [6] = details: other in vitro models deploying 1-10 μg/mL of LPS; ref Jiang et al. 2019; Li et al. 2020; cited from earlier work
cytokines = test system: cytokines; set-up: method as in ref Ganey et al. 2004; Honarmand et al. 2012; Manna and Aggarwal 1999; Yao et al. 2004; details: ref Ganey et al. 2004; Honarmand et al. 2012; Manna and Aggarwal 1999; Yao et al. 2004; cited from earlier work
IL-6 [7] = assay: IL-6 ELISA in HIVIL (iKCs co-cultured with iHeps, LPS, 48 hr); type: cell-based, human; details: for IL-6 response: result in words; for IC50: Homo sapiens, LPS, 48 hr
Description: Human iPSC cell line iPS (IMR90)-4 was purchased from WiCell Research Institute (Madison, WI), and maintained with a feeder-free method according to the instruction from […] Technologies (Vancouver, BC, Canada). The protocol of differentiation towards iKCs and iHeps as described previously with slight modification ([Tasnim et al., 2019]; [Cai et al., 2012]), respectively. […] More details are provided in Supplementary Methods. After differentiation, iKCs was harvested using 0.05 % trypsin-EDTA (Gibco, Waltham, Massachusetts, USA), while iHeps were dissociated with TrypLE^TM (Gibco). iHep suspension was further filtered through a 40 µm cell strainer to remove extracellular matrix clumps. Cell suspension was centrifuged at 1000 rpm for 5 min. For co-culture set up, tissue culture plates were coated with Rat tail collagen I (Gibco) diluted 100-fold in 0.02 N acetic acid, and incubated at 37 °C for 1 h and washed 3 times with PBS. According to the protocol optimized by [Tasnim et al. (2019)], iKCs was firstly seeded at a density of 14,000 per well on 96-well plate with Advanced DMEM (plus supplements) containing 5 % FBS. On the following day, iHeps were added at a density of 35,000 per well in Williams’ Medium E (plus supplements) (iHep: iKCs ratio = 2.5: 1). This reflects the physiological ratio of these cells in vivo under inflammatory conditions ([Tasnim et al., 2021]). Fresh media containing drugs was applied to co-cultures the next day. 50,000 cells were seeded to establish iHeps monoculture. THP-1 cells were kindly obtained from Dr. Eliza Fong and cultured as described by [Zeng et al. (2015)]. Details provided in Supplementary Methods.
as §2
as §1, with “Normalization to viability per well ensures that any changes in cytokines are not due to changes in cell numbers upon drug treatment and normalization to DMSO+LPS allows better comparison between different batches of experiments.” left out

IL-6 [8] = assay: IL-6 response in HIVIL using THP-1 macrophages co-cultured with iHeps; type: cell-based, human; details: HIVIL with THP-1 instead of iKCs, result in words
Description: Human iPSC cell line iPS (IMR90)-4 was purchased from WiCell Research Institute (Madison, WI), and maintained with a feeder-free method according to the instruction from […] Technologies (Vancouver, BC, Canada). The protocol of differentiation towards iKCs and iHeps as described previously with slight modification ([Tasnim et al., 2019]; [Cai et al., 2012]), respectively. The re-optimized protocol to generate iKCs is discussed in Results section. More details are provided in Supplementary Methods. After differentiation, iKCs was harvested using 0.05 % trypsin-EDTA (Gibco, Waltham, Massachusetts, USA), while iHeps were dissociated with TrypLE^TM (Gibco). iHep suspension was further filtered through a 40 µm cell strainer to remove extracellular matrix clumps. Cell suspension was centrifuged at 1000 rpm for 5 min. For co-culture set up, tissue culture plates were coated with Rat tail collagen I (Gibco) diluted 100-fold in 0.02 N acetic acid, and incubated at 37 °C for 1 h and washed 3 times with PBS. According to the protocol optimized by [Tasnim et al. (2019)], iKCs was firstly seeded at a density of 14,000 per well on 96-well plate with Advanced DMEM (plus supplements) containing 5 % FBS. On the following day, iHeps were added at a density of 35,000 per well in Williams’ Medium E (plus supplements) (iHep: iKCs ratio = 2.5: 1). This reflects the physiological ratio of these cells in vivo under inflammatory conditions ([Tasnim et al., 2021]). Fresh media containing drugs was applied to co-cultures the next day. 50,000 cells were seeded to establish iHeps monoculture. THP-1 cells were kindly obtained from Dr. Eliza Fong and cultured as described by [Zeng et al. (2015)]. Details provided in Supplementary Methods.
THP-1 maintenance and differentiation: THP-1 monocytic lineage was maintained in RPMI 1640 with 10% FBS. For differentiation to macrophages, suspension cells were collected and subjected to 2-day phorbol 12-myristate 13-acetate (PMA) treatment (50 ng/ml), followed by a 1-day PMA-free medium resting. THP-1 macrophages were trypsinzed and used for co-culture as described in Material and methods.
as §1

[9] = binary classification by human hepatotoxicity; ref Thakkar et al. 2020; cited from earlier work
IL-6 [10] = test system: IL-6; set-up: method as in Steuerwald et al. 2013; Mahdy et al. 2002; Kang et al. 2001; details: ref Steuerwald et al. 2013; Mahdy et al. 2002; Kang et al. 2001; cited from earlier work
PHH = test system: PHH; set-up: method as in Mennecozzi et al., 2015; details: ref Mennecozzi et al., 2015; read-out: IC50 in PHH mono-cultures; cited from earlier work
iHeps mono-cultures = test system: iHeps mono-cultures; set-up: method as in Kia et al., 2015; details: ref Kia et al., 2015; cited from earlier work
IL-10 [11] = assay: IL-10 ELISA in HIVIL (iKCs co-cultured with iHeps, LPS, 48 hr); type: cell-based, human; details: result in words
Description: Human iPSC cell line iPS (IMR90)-4 was purchased from WiCell Research Institute (Madison, WI), and maintained with a feeder-free method according to the instruction from […] Technologies (Vancouver, BC, Canada). The protocol of differentiation towards iKCs and iHeps as described previously with slight modification ([Tasnim et al., 2019]; [Cai et al., 2012]), respectively. […] More details are provided in Supplementary Methods. After differentiation, iKCs was harvested using 0.05 % trypsin-EDTA (Gibco, Waltham, Massachusetts, USA), while iHeps were dissociated with TrypLE^TM (Gibco). iHep suspension was further filtered through a 40 µm cell strainer to remove extracellular matrix clumps. Cell suspension was centrifuged at 1000 rpm for 5 min. For co-culture set up, tissue culture plates were coated with Rat tail collagen I (Gibco) diluted 100-fold in 0.02 N acetic acid, and incubated at 37 °C for 1 h and washed 3 times with PBS. […]
Enzyme-linked immunosorbent assay (ELISA) for measurement of cytokines: Interleukin-6 (IL-6), interleukin-10 (IL-10) and tumor necrosis factor alpha (TNFα) levels in the media were measured using the corresponding human-based ELISA kits (Abcam, Cambridge, United Kingdom) according to manufacturer’s instructions. […]

[12] = Cammett et al. 2009, Mendes et al. 2014, cited from earlier work
IL-10 [13] = test system: IL-10; set-up: method as in Mahdy et al. 2002; details: ref Mahdy et al. 2002; cited from earlier work
PHH-PHKC co-culture = test system: PHH-PHKC co-culture; set-up: method as in Messner et al., 2013; Sarkar et al., 2017; details: ref Messner et al., 2013; Sarkar et al., 2017; cited from earlier work
[14] = 48 h, read-out: IC50: viability

Which results are given for CC(=O)Nc1ccc(O)cc1 [APAP, acetaminophen]?
IL-6 / cytokine production in iKC mono-culture (IL-6 [1]): remained unchanged; IC50 [2, 14]: 10200 µM; viability profiles among iHeps, iKCs and HIVIL ([2]; comparison of mono-cultures and co-culture): similar; DILIrank [3]: most; Reported in-vivo (murine) responses: IL-10 (IL-10 [4]): IL-10↓; IL-6 production (IL-6 [5]): Dose-dependent decrease; IL-6 change (IL-6 [6]): increased; Reported in-vivo (murine) responses: cytokines (cytokines): IL-6/IL-10 are protective factors; reduction of IL-6 in HIVIL (IL-6 [7]; 2 mM): ~50%; group by drug-dependent IL-6 production (IL-6 [7]; HIVIL): dose-dependent inhibition; reduction of IL-6 (IL-6 [7]; HIVIL): 50%; IL-6 response (IL-6 [7]; HIVIL): decreased; IC50 (IL-6 [7]; HIVIL): 5360 µM

With O=C(O)Cc1ccccc1Nc1c(Cl)cccc1Cl [DIC, diclofenac] as the molecule, how does the IC50 [2, 14] read?
The IC50 was 385 µM.

What about the IC50 ([2]; read-out: IC50 (drug toxicity) in HIVIL) of the same molecule?
The IC50 was 385 µM.

And the “drug-specific IL-6 response with THP-1 macrophages” value (IL-6 [8])?
The value was “did not detect”.

And the DILIst [9]?
Its DILIst is 1.

What about the DILIrank [3] of the same molecule?
The DILIrank was “most”.

What about the “Reported human responses: IL-6” value (IL-6 [10]) of the same molecule?
The value was “IL-6↓”.

What about the IC50 (PHH) of the same molecule?
Its IC50 is roughly 1000 µM.

And the IL-6 production (IL-6 [5])?
Its IL-6 production is “Dose-dependent decrease”.

And the IC50 (iHeps mono-cultures)?
The IC50 was roughly 1000 µM.

And the IL-10 response (IL-10 [11])?
Its IL-10 response is “decrease”.

And the Cmax ([12]; ref in each cell: Ademisoye et al. 2018, Xu et al. 2008, Agabeyoglu and Incecayir 2009, Rojanasthien et al. 2007, Reunanen et al. 1992, Li et al. 2002, Hong-mei et al. 2013, Bareggi et al. 1987, Jiang et al. 2008)?
The Cmax was 8 µM.

And the Cmax ([12]; ref in each cell: Xu et al. 2008)?
Its Cmax is 8 µM.

What about the IL-6 response (IL-6 [7]; HIVIL) of the same molecule?
Its IL-6 response is “dose-dependent decrease”.

And the IC50 (IL-6 [7]; HIVIL)?
The IC50 was 112 µM.

What about the “Reported human responses: IL-10” value (IL-10 [13]) of the same molecule?
The value was “IL-10↑”.

What about the IC50 (PHH-PHKC co-culture) of the same molecule?
The IC50 was roughly 127 µM.
